From publication PMC3842914, “Meleagrin, a New FabI Inhibitor from Penicillium chryosogenum with at Least One Additional Mode of Action” (PLoS ONE, 2013)
≈ marks a conversion by molar mass, not a printed value. Where two headings read alike, the source gives them in different places.

How the values were obtained:
[1] = test system: S. aureus RN4220 (pE194-fabI); test: Overexpression assay, MIC for fabI-overexpressing S. aureus RN4220 (pE194-fabI); assay type: cell-based; conditions: Staphylococcus aureus, read-out: MIC S. aureus (pE194-fabI)
Description: (§1) Whole-cell antimicrobial activity was determined by broth microdilution as described previously. The test strains except for S. pneumoniae were grown to mid-log phase in Mueller–Hinton broth and diluted 1,000-fold in the same medium. Cells (10^5/mL) were inoculated into Mueller–Hinton broth and dispensed at 0.2 mL/well into a 96-well microtiter plate. S. pneumoniae was grown in tryptic soy broth supplemented with 5% sheep blood. MICs were determined in triplicate by serial 2-fold dilutions of test compounds. […] Bacterial growth was determined by measuring the absorption at 650 nm by using a microtiter ELISA reader.
An overexpression assay using S. aureus RN4220, S. aureus RN4220 (pE194), and S. aureus RN4220 (pE194-fabI) was conducted to perform target validation of FabI inhibitors as described previously. Additionally, both fabI- and fabK-overexpressing E. coli were constructed to test a multitarget effect of the compounds. The wild-type fabI gene from the genomic DNA of E. coli W3110 was amplified by PCR by using the primers 5′-[…]-3′ and 5′-[…]-3′. The wild-type fabK gene from the genomic DNA of S. pneumoniae KCTC 5412 was amplified by PCR by using the primers 5′-[…]-3′ and 5′-[…] […]-3′. The resulting products were cloned into the pBAD-TOPO TA expression vector (Invitrogen, Carlsbad, CA, USA) to yield the pBAD-fabI and pBAD-fabK recombinant plasmids, which placed the expression of the genes fabI and fabK, respectively, under the control of the arabinose promoter. Recombinant pBAD-fabI and pBAD-fabK were then introduced into the pump-negative (tolC) E. coli EW1b via electroporation to generate E. coli EW1b (pBAD-fabI) and E. coli EW1b (pBAD-fabK), respectively.

S. aureus FabI = molecular target: T1, S. aureus FabI (Staphylococcus aureus, UniProt Q6GI75); test: S. aureus FabI enzyme assay (NADPH use at 340 nm, t-o-NAC thioester substrate); assay type: biochemical
T1 construct: made in house
T1 sequence (Q6GI75 1-256): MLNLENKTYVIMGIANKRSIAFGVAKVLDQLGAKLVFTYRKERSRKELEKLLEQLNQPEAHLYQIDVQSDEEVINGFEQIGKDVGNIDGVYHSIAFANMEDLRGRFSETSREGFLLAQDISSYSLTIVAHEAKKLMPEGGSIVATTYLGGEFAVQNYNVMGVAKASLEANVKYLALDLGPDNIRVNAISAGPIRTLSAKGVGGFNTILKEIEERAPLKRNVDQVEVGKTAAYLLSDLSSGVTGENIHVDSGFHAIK
Excerpt: S. aureus FabI and E. coli FabI enzymes were cloned, overexpressed, and purified as described previously. The wild-type fabK gene was amplified by PCR from genomic DNA obtained from Streptococcus pneumoniae KCTC 5412 by using the primers 5′-[…]-3′ and 5′-[…]-3′, which contained NdeI and XhoI restriction sites, respectively. After the DNA sequence was confirmed, the gene was cloned into the pET22b vector (Novagen, Gibbstown, NJ, USA). The construct was transformed into E. coli BL21 (DE3) for expression following induction with isopropylthiogalactoside. The C-terminal His-tagged protein was purified as described previously. Assays were conducted in half-area, 96-well microtiter plates. The compounds were dissolved in DMSO and evaluated in 100-μL assay mixtures containing components specific for each enzyme (see below). Reduction of the trans-2-octenoyl N-acetylcysteamine (t-o-NAC thioester) substrate analog was measured spectrophotometrically following the utilization of NADH or NADPH at 340 nm at 30°C for the linear period of the assay. S. aureus FabI assays contained 50 mM sodium acetate (pH 6.5), 200 μM t-o-NAC thioester, 200 μM NADPH, and 150 nM S. aureus FabI.
NADH was used as a cofactor rather than NADPH for the E. coli FabI assay. Substrate concentrations used for the Lineweaver–Burk plot were 100, 200, 300, and 400 μM, whereas the concentrations of the cofactor were 100, 200, 400, and 600 μM. The rate of decrease in the amount of NADPH in each reaction was measured with a microtiter enzyme-linked immunosorbent assay (ELISA) reader by using the SOFTmax PRO software (Molecular Devices, Sunnyvale, CA, USA). The inhibitory activity was calculated according to the following formula: % of inhibition = 100× [1− (rate in the presence of compound/rate in the untreated control)]. IC50 values were calculated by fitting the data to a sigmoid equation. An equal volume of DMSO solvent was used for the untreated control. FabK assays contained 100 mM sodium acetate (pH 6.5), 2% glycerol, 200 mM NH4Cl, 50 µM t-o-NAC thioester, 200 µM NADH, and 150 nM S. pneumoniae FabK.

S. pneumoniae KCTC 3932 = test: MIC by broth microdilution, S. pneumoniae KCTC 3932; assay type: cell-based; conditions: Streptococcus pneumoniae
Description: as §1

[2] = test system: incorporation of leucine into proteins in S. aureus; test: [14C] leucine incorporation into proteins in S. aureus; assay type: cell-based; conditions: Staphylococcus aureus
Description: To monitor the effects of compound 1 on lipid, DNA, RNA, protein, and cell wall biosynthesis, its effects on the incorporation of [1-^14C] acetate (50 mCi/mmol), [2-^14C] thymidine (59.8 mCi/mmol), [U-^14C] uridine (539 mCi/mmol), L-[U-^14C] leucine (306 mCi/mmol) or L-[U-^14C] isoleucine (329 mCi/mmol), and N-acetyl-D-[1-^14C] glucosamine (58.1 mCi/mmol) into S. aureus and S. pneumoniae were measured as described previously. S. aureus was exponentially grown to an A650 of 0.2 in Mueller–Hinton broth. S. pneumoniae was grown in tryptic soy broth supplemented with 5% sheep blood. […] An equal volume of DMSO solvent was added to the untreated control. After incubation with the radiolabeled precursors at 37°C for 1 h, followed by centrifugation, the cell pellets were washed twice with PBS buffer. After acetate incorporation, the total cellular lipids were extracted with chloroform-methanol-water. The incorporated radioactivity in the chloroform phase was measured by scintillation counting. For the other precursors, incorporation was terminated by adding 10% (w/v) TCA and cooling on ice for 20 min. The precipitated material was collected on Whatman GF/C glass microfiber filters, washed with TCA and ethanol, dried, and counted using a scintillation counter. The total counts incorporated at 1 h of incubation without inhibitors ranged from >7,000 for [U-^14C] uridine to <13,000 for [1-^14C] acetate. […] In all experiments, known antibacterial agents were included as positive controls.
We measured their effects on the incorporation of [1-^14C] acetate into membrane fatty acids in S. aureus. […] In contrast, the incorporation of leucine into proteins was not inhibited by the active compounds (Table 1), whereas the protein synthesis inhibitor, chloramphenicol, inhibited incorporation (data not shown).

[3] = with respect to trans-2-octenoyl N-acetylcysteamine
[4] = KCTC3932, read-out: MIC S. pneumoniae
[5] = KCTC3932, S. pneumoniae KCTC 3932, read-out: MIC S. pneumoniae
[6] = S. aureus FabI, read-out: IC50 saFabI

Row | SMILES | MIC [1] [µg/mL] | IC50 (S. aureus FabI) [µM] | Ki (S. aureus FabI; with respect to NADPH) [µM] | Ki (S. aureus FabI; [3]) [µM] | Mode of FabI inhibition (S. aureus FabI; with respect to NADPH) | Mode of FabI inhibition (S. aureus FabI; [3]) | MIC (S. pneumoniae KCTC 3932; [4]) [µg/mL] | IC50 [2] [µM] | MIC (S. pneumoniae KCTC 3932; [5]) [µg/mL] | IC50 (S. aureus FabI; [6]) [µM]
1 | C=CC(C)(C)C12C=C(O)C(=O)N3/C(=C/c4cnc[nH]4)C(=O)NC31N(OC)c1ccccc12 (stereo not drawn) [Compound 1, meleagrin] | 256 (≈ 591 µM) | 40.1 | 32.3 | 39.8 | mixed inhibition | mixed | 64 (≈ 148 µM) | > 200 |  | 
2 | C=CC(C)(C)C12C=C(OC)C(=O)N3/C(=C/c4cnc[nH]4)C(=O)NC31N(OC)c1ccccc12 (stereo not drawn) [Compound 3, oxaline] | 256 (≈ 572 µM) | 38.7 |  |  |  |  |  | > 200 | 64 (≈ 143 µM) | 
3 | Oc1cc(Cl)ccc1Oc1ccc(Cl)cc1Cl [Triclosan, reference compound] | 1.6 (≈ 5.53 µM) |  |  |  |  |  | 64 (≈ 221 µM) | > 10 |  | 
4 | C=CC(C)(C)C12C=C(OC)C(=O)N3/C(=C/c4cnc[nH]4)C(=O)N(C)C31Nc1ccccc12 (stereo not drawn) [Compound 6, O,N^14-dimethylglandicolin] | 128 (≈ 297 µM) | 13.1 |  |  |  |  | 16 (≈ 37.1 µM) | > 200 |  | 
5 | C=CC(C)(C)C12C=C(O)C(=O)N3/C(=C/c4cnc[nH]4)C(=O)N(C)C31N(OC)c1ccccc12 (stereo not drawn) [Compound 4, N^14-methylmeleagrin] | 256 (≈ 572 µM) | 48 |  |  |  |  | 64 (≈ 143 µM) | > 200 |  | 
6 | C=CC(C)(C)C12C=C(OC)C(=O)N3/C(=C/c4cnc[nH]4)C(=O)N(C)C31N(OC)c1ccccc12 (stereo not drawn) [Compound 5, O,N^14-dimethylmeleagrin] | 128 (≈ 277 µM) |  |  |  |  |  |  | > 200 | 16 (≈ 34.7 µM) | 13.5
7 | C=CC(C)(C)C12C=C(O)C(=O)N3/C(=C/c4cnc[nH]4)C(=O)NC31Nc1c(Br)cccc12 (stereo not drawn) [Compound 7] |  |  |  |  |  |  |  | > 200 | > 128 | > 200
